Where “and” joins values, the source holds several entries; their conditions need not be identical. Identical values can stand only once. Counter-ions that a name gives are not always drawn.
What was measured:
[1] = tested on: gastric secretion; experiment: Gastric secretion inhibitory activity in pylorus-ligated rats; format: in vivo, Wistar male rats; settings: for Percent Inhibition (gastric juice) / Percent Inhibition (output secretion) / Amount of Gastric Juice / Amount of Output Secretion: 25 mg/kg into duodenum, 5 h; for Amount of Gastric Juice / Amount of Output Secretion: 10 rats, mean ± SD
Procedure: Five hours after the administration, the rats were sacrificed and gastric juice was collected. The volume and the pH value of the gastric juice and the degree of acid secretion were then determined.

[2] = tested on: blood pressure; experiment: Anti-hypertensive activity in anesthetized cats; format: in vivo; settings: 5 to 10 mg/kg via femoral vein; urethane anesthesia
Procedure: Cats weighing 3 to 5 kg were anesthetized by intraperitoneal administration of urethane at a dose of 1.5 g/kg. The test compound was administered through a catheter into a femoral vein and the blood pressure was determined by a pressure transducer through a catheter inserted into the femoral artery.

[3] = tested on: aspirin-induced ulcer; experiment: Aspirin Ulcer in pylorus-ligated rats; format: in vivo, Wistar male rats; settings: for Percent Inhibition / Ulcerous Index: aspirin 100 mg/kg oral; for Ulcerous Index: mean ± SE
Procedure: The pylorus of Wistar male rats (body weight, 230 to 250 g) which fasted for 24 hours was ligated and, immediately thereafter, the test compound was administered into the duodenum. 15 hours thereafter, acetylsalicylic acid (Aspirin) was administered orally at a dose of 100 mg/kg. Seven hours after administration of acetylsalicylic acid, the rats were sacrificed and the gastric juice was collected. the stomach was then worked up in the same manner as above to determine the ulcerous index.

[4] = tested on: stomach mucous membrane blood flow; experiment: Blood flow increasing activity on stomach mucous membrane (aminopyrin clearance method); format: in vivo, Wistar male rats; settings: 3 mg/kg intravenous
Procedure: The cardia and pylorus of Wistar male rats (body weight, 250 to 300 g) which fasted 16 hours before abdominal section were ligated under urethane anesthesia, and a cannula was inserted into the preventriculus. In order to keep the stomach in normal state, the cannula was fixed externally and the incised abdomen was closed. Separately, a cannula filed with heparin was inserted into carotid artery.
After operation, the inside of stomach was thoroughly washed with warm physiological saline solution, and 2 ml of a gastric juice (prepared by adjusting a 5% aqueous solution of mannitol to a pH 3.5 with 0.15 N hydrochloric acid, hereinafter the same) was poured into the stomach. Then, aminopyrin was administered via femoral vein at a dose of 30 mg/kg and 30 minutes thereafter aminopyrin was continuously administered at a rate of 6.6 mg/kg/hour. 45 minutes after the commencement of continuous administration of aminopyrin, 2 ml of the gastric juice warmed at 37° C. was poured into the stomach and collected after 15 minutes.
The collection of gastric juice was conducted at 15 minute intervals and 2 ml of the gastric juice was poured into the stomach between the collections. The total volume of gastric juice collected was 5 ml; 2 ml of the gastric juice was first drawn by syringe pump, 2 ml of the gastric juice was poured into the stomach and then drawn, and finally 1 ml of gastric juice was poured into the stomach and then drawn. 2 ml of the gastric juice drawn (5 ml) was presented to quantitative determination.
Sixty minutes after the commencement of continuous administration of aminopyrin, 0.5 ml of blood was drawn from the carotid artery. Thereafter, 0.5 ml of blood was drawn twice (intermediate and end points of the continuous administration of aminopyrin).
The test compound was administered intravenously immediately after the third collection of gastric juice. […]
Then, the amount of aminopyrin in the blood sample and the gastric juice was determined quantitatively and the volume of blood flow in the stomach mucous membrane per gram of the stomach tissue per minute was calculated.

[5] = tested on: stress ulcer; experiment: Stress Ulcer (1), water-dipping restriction stress, non-fasted rats tied with steel wire; format: in vivo, Wistar male rats; settings: 50 mg/kg oral
Procedure: The test compound was administered orally to Wistar male rats (body weight, 200 to 230 g) and 30 minutes thereafter the rats were tied up with a steel wire and dipped in water at 23° C. in a tank to the level of the xiphisternum of rats. After leaving the rats in water for 7 hours, the rats were sacrificed and the stomach was extracted. 10 ml of a 1% formalin solution was injected into the stomach cavity and the stomach was dipped in a 1% formalin solution for 15 minutes to semi-harden the stomach.

[6] = tested on: stress ulcer; experiment: Stress Ulcer (2), fasted rats in stress cage dipped in water; format: in vivo, Wistar male rats; settings: for Percent Inhibition / Ulcerous Index: 25 mg/kg oral, fasted 18 h; for Ulcerous Index: 7 h water immersion at 23° C., 7 rats, mean ± SD
Procedure: The test compound was administered orally to Wistar male rats (body weight, 180 to 200 g) which fasted for 18 hours before testing. 30 minutes thereafter, stress was loaded to the rats in a stress cage by dipping the cage into water at 23° C. to the level of the xiphisternum of rats. After leaving the rats in water for 7 hours, the rats were sacrificed and the stomach was extracted. The stomach was then worked up in the same manner as above to determine the ulcerous index.

[7] = tested on: blood flow in stomach mucous membrane; experiment: Recovery activity on blood flow decrease in stomach mucous membrane by blood drawing; format: in vivo, Wistar male rats; settings: 10 mg/kg intravenous
Procedure: Wistar male rats (body weight, 250 to 280 g) fasted for 24 hours and the blood flow in stomach mucous membrane was determined by the aminopyrin clearance method as described above under urethane anesthesia. After determination of blood flow, a blood sample was drawn in an amount equivalent to 3% of the body weight and, 5 minutes thereafter, the blood sample was reinstated. The blood flow was then determined at an interval of 15 minutes. The test compound was administered intravenously 15 minutes after the blood drawing.

| Structure (SMILES) | Percent Inhibition (gastric juice) [1] | Percent Inhibition (output secretion) [1] | Amount of Gastric Juice [1] | Amount of Output Secretion [1] | duration of blood pressure lowering activity [2] | inhibition of ulcer generation (in words) [5] | Percent Inhibition [6] | Ulcerous Index [6] | also measured |
| --- | --- | --- | --- | --- | --- | --- | --- | --- | --- |
| CN/C(=N/CCSCc1nc[nH]c1C)NC#N [Cimetidine] | 32.7% | 52.6% | 2.26 ± 0.85 mL | 136.6 ± 74.19 μ Eq. | – | – | – | – | – |
| C=CCN(CC=C)C(C)Cn1cc(-c2ccccc2)c2ccccc2c1=O (stereo not shown) [Compound A, 2-(2-N,N-diallylaminopropyl)-4-phenyl-1(2H)-isoquinolone maleate] | – | – | – | – | more than 2 hours | inhibit the ulcer generation caused by water-dipping restriction stress | – | – | Percent Inhibition ([3]; 10 mg/kg i.d.): 29.41%; Ulcerous Index ([3]; 10 mg/kg i.d.): 42.28 ± 2.56 mm; Percent Inhibition ([3]; 25 mg/kg i.d.): 42.98%; Ulcerous Index ([3]; 25 mg/kg i.d.): 34.15 ± 4.37 mm; Percent Inhibition ([3]; 50 mg/kg i.d.): 57.52%; Ulcerous Index ([3]; 50 mg/kg i.d.): 25.44 ± 3.41 mm; inhibition of aspirin-induced ulcer (in words) ([3]; 10, 25, 50 mg/kg i.d.): inhibits the aspirin-induced ulcer at dose levels of 10, 25, 50 mg/kg, with dependency upon dose; time of maximum percent increase in blood flow [4]: 30 min; stomach mucous membrane blood flow increasing activity (in words) ([4]; 15, 30 and 45 minutes after administration): significance increasing activity on the stomach mucous membrane blood flow; percent increase in blood flow (maximum) ([4]; 30 minutes): about 50%; Percent Inhibition ([5]; 7 h water immersion at 23° C.): 62.2% and 75.5%; Ulcerous Index ([5]; 7 h water immersion at 23° C., 6 rats, mean ± SD): 10.5 ± 6.22 mm and 6.8 ± 3.19 mm |
| C=CCN(CC=C)CC(C)Cn1cc(-c2ccccc2)c2ccccc2c1=O (stereo not shown) [Compound B, 2-(3-N,N-diallylamino-2-methylpropyl)-4-phenyl-1(2H)-isoquinolone hydrochloride] | – | – | – | – | more than 2 hours | inhibit the ulcer generation caused by water-dipping restriction stress | – | – | – |
| CC(N)Cn1cc(-c2ccccc2)c2ccccc2c1=O.O=C(O)/C=C\C(=O)O (stereo not shown) [Compound C, 2-(2-aminopropyl)-4-phenyl-1(2H)-isoquinolone maleate] | 54.2% | 56.3% | 1.54 ± 0.58 mL | 126.0 ± 40.42 μ Eq. | – | – | 52.8% | 14.6 ± 8.70 mm | stress ulcer inhibitory activity (in words) ([6]; compared with propantheline bromide): substantially equivalent to that of propantheline bromide; recovery activity on blood flow decrease (in words) [7]: significant recovery activity on blood flow decrease in stomach mucous membrane by blood drawing; Blood Flow in Mucous Membrane, 15 min. ([7]; 15 min., 3 rats, mean ± SD): 88.4 ± 36.9%; Blood Flow in Mucous Membrane, 30 min. ([7]; 30 min., 3 rats, mean ± SD): 92.7 ± 23.5%; Blood Flow in Mucous Membrane, 45 min. ([7]; 45 min., 3 rats, mean ± SD): 98.2 ± 10.2%; Blood Flow in Mucous Membrane, 60 min. ([7]; 60 min., 3 rats, mean ± SD): 101.4 ± 8.8%; Blood Flow in Mucous Membrane, 0 ([7]; time 0 (baseline), 3 rats): 100%; gastric secretion inhibitory activity (in words) ([1]; compared with propantheline bromide and Cimetidine): substantially equivalent to that of propantheline bromide but higher than that of Cimetidine |
| CC(C)[N+](C)(CCOC(=O)C1c2ccccc2Oc2ccccc21)C(C)C [Propantheline Bromide] | 56.5% | 58.8% | 1.46 ± 0.63 mL | 118.8 ± 63.51 μ Eq. | – | – | 51.9% | 14.9 ± 10.67 mm | – |
